For the assay, the target named is recombinant mTOR (FLAG-tagged, residues 1362-2549) (Homo sapiens, UniProt P42345). The assay can be described thus: In vitro mTOR kinase assay (Test (a), AlphaScreen). The assay is classed as biochemical. The conditions noted are these: ATP 20 μM, read-out: Test (a): IC50 versus mTOR kinase. In short, it runs like this: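 AlphaScreen read-out: a phospho-T389 p70 S6K antibody on acceptor beads captures the phosphorylated biotin-peptide on donor beads, with signal loss indicating inhibition.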
Chain of recombinant mTOR (FLAG-tagged, residues 1362-2549) (P42345 1362-2549): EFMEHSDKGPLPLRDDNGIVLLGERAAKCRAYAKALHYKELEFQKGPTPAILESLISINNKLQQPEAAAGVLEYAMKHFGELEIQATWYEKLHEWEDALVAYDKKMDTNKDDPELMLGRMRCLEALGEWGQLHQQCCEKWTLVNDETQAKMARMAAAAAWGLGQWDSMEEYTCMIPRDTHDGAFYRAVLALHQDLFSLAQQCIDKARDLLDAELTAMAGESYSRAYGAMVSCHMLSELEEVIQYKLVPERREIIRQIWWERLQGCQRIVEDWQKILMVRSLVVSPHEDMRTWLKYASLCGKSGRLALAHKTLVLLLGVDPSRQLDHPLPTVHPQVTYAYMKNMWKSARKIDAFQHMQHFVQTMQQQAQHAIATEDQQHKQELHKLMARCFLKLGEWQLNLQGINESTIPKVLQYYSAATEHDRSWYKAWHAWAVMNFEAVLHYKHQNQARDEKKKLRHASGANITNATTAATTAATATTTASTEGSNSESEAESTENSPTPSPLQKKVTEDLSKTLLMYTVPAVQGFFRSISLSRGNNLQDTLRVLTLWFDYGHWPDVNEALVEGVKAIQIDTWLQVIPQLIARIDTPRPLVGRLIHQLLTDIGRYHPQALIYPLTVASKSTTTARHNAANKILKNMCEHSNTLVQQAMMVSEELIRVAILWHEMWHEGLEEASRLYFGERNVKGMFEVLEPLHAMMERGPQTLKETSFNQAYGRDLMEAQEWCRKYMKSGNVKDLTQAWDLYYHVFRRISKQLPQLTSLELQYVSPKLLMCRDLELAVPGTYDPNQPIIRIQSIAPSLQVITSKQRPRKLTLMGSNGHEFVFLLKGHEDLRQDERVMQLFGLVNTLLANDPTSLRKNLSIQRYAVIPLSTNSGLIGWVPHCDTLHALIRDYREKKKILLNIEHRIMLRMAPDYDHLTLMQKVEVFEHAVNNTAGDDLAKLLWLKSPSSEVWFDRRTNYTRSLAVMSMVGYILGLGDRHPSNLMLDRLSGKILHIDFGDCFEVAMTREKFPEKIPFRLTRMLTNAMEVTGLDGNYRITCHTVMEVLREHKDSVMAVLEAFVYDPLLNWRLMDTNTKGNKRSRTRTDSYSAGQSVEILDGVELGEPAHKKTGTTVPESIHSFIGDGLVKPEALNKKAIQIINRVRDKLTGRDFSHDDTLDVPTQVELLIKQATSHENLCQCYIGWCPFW
Usually IC50 stands for the point on the concentration scale where inhibition reaches its midpoint. `C[C@H]1COCCN1c1cc(C(C)(C)S(C)(=O)=O)nc(N2CCC(NC(=O)NCc3cnn(C)c3)CC2)n1` [Example 24q, 1-[1-[4-[(3S)-3-methylmorpholin-4-yl]-6-(2-methylsulfonylpropan-2-yl)pyrimidin-2-yl]-4-piperidyl]-3-[(1-methylpyrazol-4-yl)methyl]urea]: the IC50 came out at 5800 nM.
The same measure for `C[C@H]1COCCN1c1cc(CS(C)(=O)=O)nc(-c2ccc(NC(=O)NC3CC3)nc2)n1` [Example 24r, 3-cyclopropyl-1-[5-[4-[(3S)-3-methylmorpholin-4-yl]-6-(methylsulfonylmethyl)pyrimidin-2-yl]pyridin-2-yl]urea]: 340 nM; for `C[C@H]1COCCN1c1cc(C(C)(C)S(C)(=O)=O)nc(-c2ccc(NC(=O)Nc3ccon3)cc2)n1` [Example 24s, 1-[4-[4-[(3S)-3-methylmorpholin-4-yl]-6-(2-methylsulfonylpropan-2-yl)pyrimidin-2-yl]phenyl]-3-(1,2-oxazol-3-yl)urea]: 4.7 nM.
The value for `Cc1cc(NC(=O)Nc2ccc(-c3nc(N4CCOC[C@@H]4C)cc(C(C)(C)S(C)(=O)=O)n3)cc2)no1` [Example 24t, 3-[4-[4-[(3S)-3-methylmorpholin-4-yl]-6-(2-methylsulfonylpropan-2-yl)pyrimidin-2-yl]phenyl]-1-(5-methyl-1,2-oxazol-3-yl)urea] was 12 nM; that for `C[C@H]1COCCN1c1cc(C(C)(C)S(C)(=O)=O)nc(-c2ccc(NC(=O)Nc3ncccn3)cc2)n1` [Example 24u, 1-[4-[4-[(3S)-3-methylmorpholin-4-yl]-6-(2-methylsulfonylpropan-2-yl)pyrimidin-2-yl]phenyl]-3-pyrimidin-2-yl-urea] was 120 nM; that for `C[C@H]1COCCN1c1cc(C(C)(C)S(C)(=O)=O)nc(-c2ccc(NC(=O)Nc3cc[nH]n3)cc2)n1` [Example 24v, 1-[4-[4-[(3S)-3-methylmorpholin-4-yl]-6-(2-methylsulfonylpropan-2-yl)pyrimidin-2-yl]phenyl]-3-(1H-pyrazol-3-yl)urea] was 55 nM.
The same measure for `C[C@H]1COCCN1c1cc(C(C)(C)S(C)(=O)=O)nc(-c2ccc(NC(=O)Nc3ccccc3)cc2)n1` [Example 24w, 1-[4-[4-[(3S)-3-methylmorpholin-4-yl]-6-(2-methylsulfonylpropan-2-yl)pyrimidin-2-yl]phenyl]-3-phenyl-urea]: 34 nM; for `COc1ccc(NC(=O)Nc2ccc(-c3nc(N4CCOC[C@@H]4C)cc(C(C)(C)S(C)(=O)=O)n3)cc2)cn1` [Example 24x, 3-(6-methoxypyridin-3-yl)-1-[4-[4-[(3S)-3-methylmorpholin-4-yl]-6-(2-methylsulfonylpropan-2-yl)pyrimidin-2-yl]phenyl]urea]: 100 nM.
As for `C[C@H]1COCCN1c1cc(C(C)(C)S(C)(=O)=O)nc(-c2ccc(NC(=O)Nc3ccc(F)cn3)cc2)n1` [Example 24y, 3-(5-fluoropyridin-2-yl)-1-[4-[4-[(3S)-3-methylmorpholin-4-yl]-6-(2-methylsulfonylpropan-2-yl)pyrimidin-2-yl]phenyl]urea], the IC50 came to 2200 nM.
The value for `C[C@H]1COCCN1c1cc(C(C)(C)S(C)(=O)=O)nc(-c2cnc(NC(=O)NCc3cnn(C)c3)nc2)n1` [Example 24z, 1-[5-[4-[(3S)-3-methylmorpholin-4-yl]-6-(2-methylsulfonylpropan-2-yl)pyrimidin-2-yl]pyrimidin-2-yl]-3-[(1-methylpyrazol-4-yl)methyl]urea] was 370 nM; that for `C[C@H]1COCCN1c1cc(CS(C)(=O)=O)nc(-n2ccc(NC(=O)Nc3ccccc3)n2)n1` [Example 25, 1-[1-[4-[(3S)-3-Methylmorpholin-4-yl]-6-(methylsulfonylmethyl)pyrimidin-2-yl]pyrazol-3-yl]-3-phenyl-urea] was 1900 nM.
The value for `COc1ccc(NC(=O)Nc2ccn(-c3nc(CS(C)(=O)=O)cc(N4CCOC[C@@H]4C)n3)n2)cc1` [Example 25a, 3-(4-methoxyphenyl)-1-[1-[4-[(3S)-3-methylmorpholin-4-yl]-6-(methylsulfonylmethyl)pyrimidin-2-yl]pyrazol-3-yl]urea] was 4400 nM.

The values are drawn from patent US7750003B2, “Compounds-943” (AstraZeneca AB, priority 2006, dated 2010).
